Format in all cases: cell-based
Series [1] concerns latent HIV-1 infection in bulk population of latently infected JLTRG cells. The series can be described thus: Reactivation of latent HIV-1 in a bulk population of latently infected cells, flow cytometry. The note with it: optimal concentration of each compound, day 57 bulk population, 100,000 viable cells counted. As to the method: (A) Jurkat cells were infected with an EGFP expressing, replication incompetent reporter virus and the level of productive HIV-1 infection at each indicated time-point was directly assessed by flow cytometric analysis for EGFP expression (untreated; black circles). Levels of initial non-productive and later on latent HIV-1 infection was determined 24 hours following TNF-α stimulation (black squares). The results represent the mean ±S.D. of three independent experiments.
a) Quantification of the HIV-1 reactivating capabilities of test compounds. Following infection, HIV-1 integrates into the cellular genome. Integration is random, although HIV-1 preferentially integrates into euchromatin structures. Latency development can be thus influenced by a multitude of factors that alter gene expression or DNA structure, such as divergent gene expression patterns or the cell cycle stage at the time point of viral integration. Although the reporter cell lines are representative for the majority of latently infected cells and reliably identify most reactivating agents during the screening effort, they can not allow quantification of the capability of the individual compounds to reactivate HIV-1 infection from a diverse population of latently infected cells. To account for the influence that the side of integration of a latent virus can have on a compounds ability to reactivate the virus, a bulk population of latently infected cells (FIG. 7) was established. Following infection of JLTRG cells with HIV-1 NL43, a rapid increase of the level of infection can be observed. On day 3, an average 27% of the cells were productively infected. […] Until day 15, the percentage of productively infected cells rapidly declined to 3% of the overall cell population. At this time point, an additional 5% of the cells were non-productively infected. […] Since 1×10^6 cells were initially infected, and virus mediated inhibition of cell proliferation influences the relative level of infection over time can be excluded, it can be calculated that the latently infected cell population should consist of […] individual latently infected cells. This bulk population of cells allows quantification of the capability of the respective compounds to reactivate latent HIV-1. […] Each compound was titrated over a two-log concentration range to allow for optimal reactivation. The results for the optimal concentration of each compound are depicted in FIG. 7B. […] TNF-α (10 ng/ml) reactivated latent HIV-1 infection in 5% of the cells, whereas the DNA histone deacetylase inhibitors trichostatin A (TSA) and sodium butyrate (NaBu) reactivated latent HIV-1 infection in only 3% or 2.5% of the cells, respectively. To achieve an accurate estimate of the differences in the capability of different agents to reactivate HIV-1 infection it is important to run a sufficiently high number of cells. For this flow cytometry based analysis, 100,000 cells viable per sample were counted.
For orientation: Flow cytometry measures light scatter and fluorescence of single cells or particles in a stream.

For series [2], the system named is CD28 mediated HIV-1 reactivation in J89GFP cells. The series can be described thus: Inhibition of activating anti-CD28 antibody (5D10) mediated HIV-1 reactivation in J89GFP cells. The note with it: J89GFP pretreated, then stimulated with 5D10; inhibitors 1 μM.
Protocol: The results are representative for five independent experiments. […] (C) J89GFP cells were pretreated for two hours with the specific ERK-inhibitor U0126 (control: U0124) or the specific p38-inhibitor SB202190 (control: SB202474) and then stimulated with activating anti-CD28 antibody 5D10 (1 μg/ml). Level of reactivation was measured as %-EGFP^+ cells using flow cytometry. Results represent the mean ±S.D. of three independent experiments.
The subject of another series is JEGFP cells. As to conditions: 10,000 JEGFP cells/well, 384-well plate, increasing amounts of compound. As to the method: JEGFP cells were seeded at a cell density of 1×10^4 cells/well into a 384-well plate and left untreated (Control) or treated with a low concentration of daunorubicin (0.0001 μg/ml). EGFP fluorescence as a measure of cell proliferation was then determined over a period of four days.
Influence of altered cell proliferation, cell viability and compound auto-fluorescence on EGFP fluorescence intensity. […] For example, compounds that have fluorochrome characteristics in the same excitation and emission range as EGFP can unspecifically increase the fluorescence signal and can cause false positive hits. On the other hand, too high concentrations of compounds that can reactivate latent HIV-1 infection, but within the chosen concentration range, either inhibit cell proliferation or decrease cell viability can result in false negative hits. […] Compounds that unspecifically increase EGFP expression in the latently infected LWI cells due to their fluorochrome characteristics also increase EGFP fluorescence in these cells, and can be detected as false positive hits. […] As JEGFP cells divide every 24 h and EGFP fluorescence intensity, when measured by plate based fluorometry, directly correlates with the cell density (FIG. 5), any influence of the tested compound on cell proliferation or cell viability can be immediately indicated by a drop in EGFP fluorescence. […]

Series [3] deals with HIV-1 Tat / HIV-1 transcription in J89GFP cells. The experiment in a line: Suppression of TNF-α mediated HIV-1 reactivation in J89GFP cells by Tat inhibitor. As to conditions: 10 μM. The procedure:
EGFP expression following TNF-α (1 ng/ml) mediated reactivation of latent HIV-1 infection in J89GFP cells in the presence or absence of Ro24-7429 (10 μM). Following stimulation, area (A+B) represents the total amount of virus produced over a two day period of time, whereas area B represents the amount of virus produced in the presence of Ro24-7429. Results represent the mean ±S.D. of three independent experiments.
The latently HIV-1 infected reporter T cell line J89GFP (Kutsch et al., 2002) was pretreated with the respective compound and then stimulated with various concentrations of TNF-α. As reactivation of latent HIV-1 is dependent on Tat activity, a sufficiently potent Tat inhibitor would suppress HIV-1 reactivation as indicated by […] in EGFP fluorescence. […] Levels of reactivation with respect to the percentage of HIV-1 positive cells, as well as the EGFP MCF intensity were identical. Whereas EGFP expression in TNF-α treated J89GFP in the absence of Ro24-7429 continued to increase until 96 h post stimulation, EGFP MCF peaked after 48 h, reaching 50% of the maximal EGFP MCF seen in the absence of Ro24-7429, and the slowly declined again (FIG. 14). The observed increase of EGFP fluorescence in TNF-α treated J89GFP cells can be described as an invasion kinetics of the first order, whereas the kinetics of EGFP expression following TNF-α mediated reactivation of HIV-1 in the presence of Ro24-7429 can be best described by a Bateman function, that describes onset and elimination of HIV-1 expression. Again, integration of the equation describing each curve allows for the determination of the relative amount of virus being produced in the critical 2 days time frame. Area (A+B) represents the amount of virus produced following reactivation, and Area B represents the amount of virus produced in the presence of Ro24-7429.

Take `CC(/C=C/C(=O)NO)=C\[C@@H](C)C(=O)c1ccc(N(C)C)cc1` [TSA, trichostatin A]: the “cells in which latent HIV-1 infection was reactivated” value (“cells” for short) in series [1] is on record as 3%. On to `Oc1ccc(-c2nc(-c3ccncc3)c(-c3ccc(F)cc3)[nH]2)cc1` [SB202190], for which, in series [2], the “effect on HIV-1 reactivation by activating anti-CD28 antibody” value was “efficiently abrogated the activating effect of the antibody and blocked HIV-1 reactivation”. With `CCCC(=O)[O-].[Na+]` [NaBu, sodium butyrate], the “cells” value in series [1] is 2.5%. As for `CC(=O)O[C@@]12C[C@@H](C)[C@@]3(O)[C@@H](C=C(CO)C[C@]4(O)C(=O)C(C)=C[C@@H]34)[C@@H]1C2(C)C` [prostratin], the “cells” value in series [1] is 6%. Turning to `COc1cccc2c1C(=O)c1c(O)c3c(c(O)c1C2=O)C[C@@](O)(C(C)=O)C[C@@H]3O[C@H]1C[C@H](N)[C@H](O)[C@H](C)O1` [daunorubicin], in the series with JEGFP cells, the “EGFP expression as measure of cell proliferation/viability” value is reported as “sharp drop in EGFP expression”. For `CNC1=Nc2ccc(Cl)cc2C(c2ccc[nH]2)=NC1` [Ro24-7429], in series [3] (TNF-α 1 ng/ml, first 24 h), the “influence on the level of HIV-1 expression during the first 24 h” value is listed as “had no influence on the level of HIV-1 expression”. For the same molecule, the “inhibition of virus production” value in series [3] (TNF-α 1 ng/ml, initial 2 days period, from integration of EGFP curves) is reported as 20%. Further, in series [3] (TNF-α 1 ng/ml, peak after 48 h), the “peak EGFP MCF relative to maximal EGFP MCF in the absence of inhibitor” value is 50%. In series [3] (in the presence of 1 ng/ml TNF-α), the “suppression of reactivation of latent HIV-1” value is “not capable of suppressing reactivation of latent HIV-1 infection”. For the molecule `N#CC(=C(/N)Sc1ccccc1N)/C(C#N)=C(\N)Sc1ccccc1N` [U0126], in series [2], the “effect on HIV-1 reactivation by activating anti-CD28 antibody” value is “efficiently abrogated the activating effect of the antibody and blocked HIV-1 reactivation”.
